Source: patent publication US7868006B2, “Heterocyclic substituted piperazines with CXCR3 antagonist activity” (Schering Corporation, priority 2005, dated 2011)

Target: T1, human CXCR3 (N-delta 4) (Homo sapiens, UniProt P49682)
T1 construct: CD8 leader (N); Flag tag (N); expressed in transfected cells; host or cells: mouse pro-B Ba/F3 cells, stably transfected with pME18Sneo-hCXCR3 (N-delta 4); membrane preparation
T1 sequence (P49682 5-368 limits assumed): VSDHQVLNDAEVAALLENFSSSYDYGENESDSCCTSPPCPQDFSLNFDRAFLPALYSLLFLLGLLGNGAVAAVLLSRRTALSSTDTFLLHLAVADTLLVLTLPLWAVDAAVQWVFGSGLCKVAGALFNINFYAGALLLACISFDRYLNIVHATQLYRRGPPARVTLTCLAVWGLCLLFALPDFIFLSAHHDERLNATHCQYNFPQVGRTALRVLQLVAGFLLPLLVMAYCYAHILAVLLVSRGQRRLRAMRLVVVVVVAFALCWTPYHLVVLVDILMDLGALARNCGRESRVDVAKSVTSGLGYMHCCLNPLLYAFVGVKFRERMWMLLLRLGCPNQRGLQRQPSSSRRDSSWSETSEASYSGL
Test: Human CXCR3 (N-delta 4) Scintillation Proximity Assay (SPA), [125I] IP-10 binding
Conditions: IC50 rating; Ba/F3-hCXCR3 (N-delta 4) membranes, 25 pM [125I] IP-10; read-out: IC50
From the text: The inventive compounds can readily be evaluated to determine activity at The CXCR3 receptors by known methods, such as, for example, Development of Human CXCR3 (N-delta 4) Binding Assay.
Cloning and Expression of Human CXCR3 (N-delta 4):
The DNA encoding human CXCR3 was cloned by PCR using human genomic DNA (Promega, Madison, Wis.) as a template. The PCR primers were designed based on the published sequence of human orphan receptor GPR9 (1) with incorporated restriction sites, a Kozak consensus sequence, CD8 leader and Flag tag. The PCR product was subcloned into the mammalian expression vector pME18Sneo, a derivative of the SR-alpha expression vector (designated as pME18Sneo-hCXCR3 (N-delta 4).
IL-3-dependent mouse pro-B cells Ba/F3 were transfected by electroporation in 0.4 ml Dulbecco's PBS containing 4×10^6 cells with 20 μg of pME18Sneo-hCXCR3 (N-delta 4) plasmid DNA. Cells were pulsed at 400 Volts, 100 OHMs, 960 μFd. The transfected cells were under selection with 1 mg/ml G418 (Life Technologies, Gaithersburg, Md.). G418-resistant Ba/F3 clones were screened for CXCR3 expression by specific binding of [^125I] IP-10 (NEN Life Science Products, Boston, Mass.).
Preparation of Ba/F3-hCXCR3 (N-delta 4) Membranes:
Ba/F3 cells expressing human CXCR3 (N-delta 4) were pelleted and resuspended in the lysis buffer containing 10 mM HEPES, pH 7.5 and Complete® protease inhibitors (1 tablet per 100 ml) (Boehringer Mannheim, Indianapolis, Ind.) at a cell density of 20×10^6 cells per ml. After 5 minutes incubation on ice, cells were transferred to 4639 cell disruption bomb (Parr Instrument, Moline, Ill.) and applied with 1,500 psi of nitrogen for 30 minutes on ice. Large cellular debris was removed by centrifugation at 1,000×g. Cell membrane in the supernatant was sedimented at 100,000×g. The membrane was resuspended in the lysis buffer supplemented with 10% sucrose and stored at −80° C. Total protein concentration of the membrane was determined by BCA method from Pierce (Rockford, Ill.).
Human CXCR3 (N-delta 4) Scintillation Proximity Assay (SPA):
For each assay point, 2 μg of membrane was preincubated for 1 hr with 300 μg wheat germ agglutinin (WGA) coated SPA beads (Amersham, Arlington Heights, Ill.) in the binding buffer (50 mM HEPES, 1 mM CaCl2, 5 mM MgCl2, 125 mM NaCl, 0.002% NaN3, 1.0% BSA) at room temperature. The beads were spun down, washed once, resuspended in the binding buffer and transferred to a 96-well Isoplate (Wallac, Gaithersburg, Md.). 25 pM of [^125I] IP-10 with tested compounds in a series of titration were added to start the reaction. After 3 hr reaction at room temperature, the amount of [^125I] IP-10 bound to the SPA beads was determined with a Wallac 1450 Microbeta counter.
The Ki values for the various example compounds of the present invention are given in the afore-mentioned Table 1. From these values, it would be apparent to the skilled artisan that the compounds of the invention have excellent utility CXCR3 antagonists.

| SMILES | IC50 |
| --- | --- |
| CCNc1nnc(-c2cnc(N3C[C@H](CC)N(C4CCN(C(=O)c5ccc(Cl)nc5N)CC4)C[C@H]3C)c(C(F)(F)F)n2)o1 [Compound 98] | < 25 nM |
| CCNc1nnc(-c2cnc(N3C[C@H](CC)N(C4CCN(C(=O)c5ccc(Cl)nc5N)CC4)C[C@H]3C)c(Cl)n2)o1 [Compound 100] | < 25 nM |
| CCNc1nnc(-c2cnc(N3C[C@H](CC)N(C4CCN(C(=O)c5ccc(Cl)cc5)CC4)C[C@H]3C)c(Cl)n2)o1 [Compound 101] | < 25 nM |
| CC[C@H]1CN(c2ncc(-c3nnc(N)o3)nc2C)[C@H](C)CN1C1CCN(C(=O)c2ccc(Cl)cc2)CC1 [Compound 102] | < 25 nM |
| CCNc1nnc(-c2cnc(N3CCN(C4CCN(C(=O)c5ccc(Cl)nc5N)CC4)[C@@H](CC)C3)c(C(F)(F)F)n2)o1 [Compound 103] | < 25 nM |
| CC[C@H]1CN(c2ncc(-c3ncc[nH]3)nc2C)CCN1C1CCN(Cc2ccc(F)cc2)CC1 [Compound 104] | < 25 nM |
| CC[C@H]1CN(c2ncc(-c3nnc[nH]3)nc2C)CCN1C1CCN(Cc2ccc(F)cc2)CC1 [Compound 105] | < 25 nM |
| CC[C@H]1CN(c2ncc(-c3nc[nH]n3)nc2C)[C@H](C)CN1C1CCN(Cc2ccc(F)cc2)CC1 [Compound 106] | < 25 nM |
| CC[C@H]1CN(c2ncc(-c3ncc[nH]3)nc2C)CCN1C1CCN(Cc2ccc(Cl)cc2)CC1 [Compound 107] | < 25 nM |
| CC[C@H]1CN(c2ncc(-c3ncc[nH]3)nc2C)CCN1C1CCN(Cc2ccc(F)c(F)c2)CC1 [Compound 108] | < 25 nM |
| CC[C@H]1CN(c2ncc(-c3nnc[nH]3)nc2C)CCN1C1CCN(Cc2ccc(F)c(F)c2)CC1 [Compound 109] | < 25 nM |
| CC[C@H]1CN(c2ncc(-c3nc[nH]n3)nc2C)CCN1C1CCN(C(=O)c2ccc(C)c(F)c2)CC1 [Compound 110] | < 25 nM |
| CC[C@H]1CN(c2ncc(-c3ncc[nH]3)nc2C)CCN1C1CCN(C(=O)c2ccc(Cl)cc2)CC1 [Compound 111] | < 25 nM |
| CC[C@H]1CN(c2ncc(-c3nc[nH]n3)nc2C)[C@H](C)CN1C1CCN(Cc2ccc(Cl)cc2)CC1 [Compound 112] | < 25 nM |
| CC[C@H]1CN(c2ncc(-c3nc[nH]n3)nc2C)CCN1C1CCN(C(=O)c2ccc(F)c(F)c2)CC1 [Compound 113] | < 25 nM |
| CC[C@H]1CN(c2ncc(C3=NNCN3)nc2C)[C@H](C)CN1C1CCN(Cc2ccc(F)c(F)c2)CC1 [Compound 114] | < 25 nM |
| CCNc1nnc(-c2cnc(N3CCN(C4CCN(Cc5ccc(C)cc5)CC4)[C@@H](CC)C3)c(C)n2)o1 [Compound 115] | < 25 nM |
| CC[C@H]1CN(c2ncc(C3=NCCN3)nc2C)[C@H](C)CN1C1CCN(C(=O)c2ccc(Cl)cc2)CC1 [Compound 116] | < 25 nM |
| CCNc1nnc(-c2cnc(N3CCN(C4CCN(Cc5ccc(F)cc5)CC4)[C@@H](CC)C3)c(C)n2)o1 [Compound 117] | < 25 nM |
| CC[C@H]1CN(c2ncc(-c3nnc[nH]3)nc2C)[C@H](C)CN1C1CCN(C(=O)c2ccc(Cl)cc2)CC1 [Compound 118] | 25 to 100 nM |
| CC[C@H]1CN(c2ncc(-c3ncc[nH]3)nc2C)CCN1C1CCN(C(=O)c2ccc(Cl)nc2N)CC1 [Compound 119] | < 25 nM |
| CC[C@H]1CN(c2ncc(-c3nnc(N)[nH]3)nc2C)CCN1C1CCN(C(=O)c2ccc(Cl)cc2)CC1 [Compound 120] | < 25 nM |
| CC[C@H]1CN(c2ncc(-c3nc[nH]n3)nc2C)[C@H](C)CN1C1CCN(C(=O)c2ccc(F)c(F)c2)CC1 [Compound 122] | 25 to 100 nM |
| CC[C@H]1CN(c2ncc(-c3nnc(N)o3)nc2C)[C@H](C)CN1C1CCN(Cc2ccc(Cl)cc2)CC1 [Compound 123] | < 25 nM |

| SMILES | IC50 |
| --- | --- |
| CC[C@H]1CN(c2ncc(-c3ncc[nH]3)nc2C)CCN1C1CCN(C(=O)c2ccc(Cl)c(F)c2)CC1 [Compound 124] | < 25 nM |
| CC[C@H]1CN(c2ncc(-c3nc[nH]n3)nc2C)CCN1C1CCN(C(=O)c2ccc(Cl)c(F)c2)CC1 [Compound 125] | < 25 nM |
| CCNc1nnc(-c2cnc(N3CCN(C4CCN(C(=O)c5ccc(C)cc5)CC4)[C@@H](CC)C3)c(C)n2)o1 [Compound 126] | < 25 nM |
| CCNc1nnc(-c2cnc(N3CCN(C4CCN(Cc5ccc(C)c(F)c5)CC4)[C@@H](CC)C3)c(C)n2)o1 [Compound 127] | < 25 nM |
| CCNc1nnc(-c2cnc(N3C[C@H](CC)N(C4CCN(Cc5ccc(F)cc5)CC4)C[C@H]3C)c(C)n2)o1 [Compound 128] | < 25 nM |
| CCc1nnc(-c2cnc(N3CCN(C4CCN(C(=O)c5ccc(Cl)cc5)CC4)[C@@H](CC)C3)c(C)n2)[nH]1 [Compound 129] | < 25 nM |
| CC[C@H]1CN(c2ncc(-c3ncc[nH]3)nc2C)[C@H](C)CN1C1CCN(C(=O)c2ccc(Cl)nc2N)CC1 [Compound 130] | < 25 nM |
| CC[C@H]1CN(c2ncc(-c3nc[nH]n3)nc2C)[C@H](C)CN1C1CCN(C(=O)c2ccc(Cl)nc2N)CC1 [Compound 131] | < 25 nM |
| CCNc1nnc(-c2cnc(N3CCN(C4CCN(Cc5ccc(Cl)cc5)CC4)[C@@H](CC)C3)c(C)n2)o1 [Compound 132] | < 25 nM |
| CC[C@H]1CN(c2ncc(-c3nc[nH]n3)nc2C)[C@H](C)CN1C1CCN(C(CO)c2ccc(Cl)cc2)CC1 (stereo partly drawn) [Compound 133] | < 25 nM |
| CC[C@H]1CN(c2ncc(-c3nc[nH]n3)nc2C)[C@H](C)CN1C1CCN(C(=O)c2ccc(Cl)c(F)c2)CC1 [Compound 134] | < 25 nM |
| CC[C@H]1CN(c2ncc(-c3ncc[nH]3)nc2C)CCN1C1CCN(Cc2ccc(OC(F)(F)F)cc2)CC1 [Compound 135] | < 25 nM |
| CCNc1nnc(-c2cnc(N3C[C@H](CC)N(C4CCN(Cc5ccc(O)cc5)CC4)C[C@H]3C)c(C)n2)o1 [Compound 136] | < 25 nM |
| CC[C@H]1CN(c2ncc(-c3nnc(C)o3)nc2F)CCN1C1CCN(C(=O)c2ccc(Cl)nc2N)CC1 [Compound 137] | 25 to 100 nM |
| CC[C@H]1CN(c2ncc(-c3nc[nH]n3)nc2C)CCN1C1CCN(C(=O)c2cc(F)c(F)cc2Cl)CC1 [Compound 138] | 25 to 100 nM |
| CCNc1nnc(-c2cnc(N3CCN(C4CCN(C(=O)c5ccc(CC)cc5)CC4)[C@@H](CC)C3)c(C)n2)o1 [Compound 139] | 25 to 100 nM |
| CC[C@H]1CN(c2ncc(-c3nnc(C4CC4)[nH]3)nc2C)CCN1C1CCN(C(=O)c2ccc(Cl)cc2)CC1 [Compound 140] | < 25 nM |
| CC[C@H]1CN(c2ncc(-c3nnc(C(C)C)[nH]3)nc2C)CCN1C1CCN(C(=O)c2ccc(Cl)cc2)CC1 [Compound 141] | 25 to 100 nM |
| CCNc1nnc(-c2cnc(N3CCN(C4CCN(C(=O)c5ccc(Cl)cc5)CC4)[C@@H](CC)C3)c(C)n2)o1 [Compound 142] | < 25 nM |
| CC[C@H]1CN(c2ncc(-c3nnc(NC)o3)nc2C)[C@H](C)CN1C1CCN(C(=O)c2ccc(Cl)cc2)CC1 [Compound 143] | < 25 nM |
| CCNc1nnc(-c2cnc(N3CCN(C4CCN(C(=O)c5ccc(F)c(F)c5)CC4)[C@@H](CC)C3)c(C)n2)o1 [Compound 144] | < 25 nM |
| CCNc1nnc(-c2cnc(N3C[C@H](CC)N(C4CCN(C(=O)c5ccc(O)cc5)CC4)C[C@H]3C)c(C)n2)o1 [Compound 145] | 25 to 100 nM |
| CC[C@H]1CN(c2ncc(-c3nc4ccccc4[nH]3)nc2C)CCN1C1CCN(C(=O)c2ccc(Cl)cc2)CC1 [Compound 146] | < 25 nM |
| CC[C@H]1CN(c2ncc(-c3nc[nH]n3)nc2C)CCN1C1CCN(C(=O)c2ccc(C(F)(F)F)nc2N)CC1 [Compound 147] | 25 to 100 nM |
